What was measured:
Format in all cases: physicochemical
[1] = Dissolution kinetics by online refractometry (normalized refractive index), stirred; settings: particle size 60-90 μm; for amount of solid dissolved in water within 20 seconds: 60 ml, stirring 500 rpm, ambient temperature (20° C.)
Protocol: Dissolution kinetics were measured by online-refractometry in water over a time period of 0 to 100 seconds while stirring at 500 rpm at ambient temperature (20° C.).
The dissolution kinetics of 2 g of lactose.CaCl2.7 H2O co-crystals in water (♦) in comparison to 1.24 g of pure lactose monohydrate in water (▪), 1.24 g of lactose monohydrate in 0.52 g calcium chloride solution (▴) and a physical mixture of 1.24 g of lactose monohydrate and 0.52 g of calcium chloride dihydrate in water (X) were measured by refractometry at room temperature over a time period of 0 to 100 seconds while stirring the solution.

[2] = Dissolution of an individual crystal filmed under a microscope, no agitation; settings: room temperature; for time to complete dissolution of an individual crystal: crystals comparable in size and morphology
Protocol: The dissolution of the individual crystals was filmed under a microscope using a high-resolution camera and film-stills of the progressing dissolution were analyzed (area of remaining solid material) until complete dissolution was achieved.
Dissolution kinetics were measured over a time period of 0 to 36 seconds.
The dissolution kinetics of an individual α-lactose.CaCl2.7 H2O co-crystal (▪) in comparison to α-lactose monohydrate (▴) in water were determined. Dissolution kinetics were measured over a time period of 0 to 36 seconds at room temperature without stirring.

[3] = Dynamic vapor sorption (moisture tolerance); settings: 25° C., 120 hours, relative humidity augmented stepwise
Protocol: The physical mixture contains the same molar quantities of lactose and calcium chloride as compared to the co-crystalline material. The straight (horizontal) line corresponds to an uptake of five equivalents of water. dm: mass gain in percent; RH: relative humidity in percent.
Dynamic vapor sorption experiments were performed for lactose.calcium salt co-crystals in comparison to a physical mixture of lactose monohydrate and calcium chloride dihydrate. The physical mixture contains the same molar quantities of lactose and calcium chloride as compared to the co-crystalline material.
Measurements were conducted over 120 hours at a temperature of 25° C. and relative humidity was augmented stepwise until the samples fully liquefied.

Row | SMILES | amount of solid dissolved in calcium chloride solution within 20 seconds ([1]; 1.24 g in 0.52 g calcium chloride solution, stirring, room temperature) | amount of solid dissolved in water within 20 seconds [1] | time for complete dissolution relative to lactose.CaCl2.7 H2O co-crystal (times as long) ([2]; individual crystal, liquid phase not agitated) | time to complete dissolution of an individual crystal ([2]; water, without stirring) | moisture absorption behaviour [3] | moisture tolerance compared to physical mixture of lactose monohydrate and calcium chloride dihydrate [3] | dissolution speed relative to lactose monohydrate (times faster) ([2]; individual crystal, water, without stirring) [times]
1 | O.OC[C@H]1O[C@@H](O[C@H]2[C@H](O)[C@@H](O)C(O)O[C@@H]2CO)[C@H](O)[C@@H](O)[C@H]1O (stereo partly drawn) [lactose monohydrate, reference compound] | about 30% | about 20% | roughly seven | about 36 seconds | – | – | –
2 | O.O.O.O.O.O.O.OC[C@H]1O[C@@H](O[C@H]2[C@H](O)[C@@H](O)C(O)O[C@@H]2CO)[C@H](O)[C@@H](O)[C@H]1O.[Ca+2].[Cl-].[Cl-] (stereo partly drawn) [lactose.CaCl2.7 H2O co-crystals, lactose.calcium chloride.7 H2O] | – | about 85% | – | about 2.5 seconds | gradually continued to absorb moisture in parallel with augmentation of relative humidity | improved moisture tolerance | 14 to 15

Source: patent US20180177219A1, “FAST-DISSOLVING CO-CRYSTALLINE LACTOSE” (NESTEC S.A., priority 2015, published 2018)
